Drawing on US9878982B2, “Pyridine derivatives and anti-mycobacterial use thereof” (priority 2014, dated 2018), this text covers MIC, CC50 and IC50 for eight compounds.

The test system of data set [1] is M. tuberculosis H37R. Briefly: microbe, parasite or virus in culture. It counts as cell-based, Mycobacterium tuberculosis. As to conditions: Mycobacterium tuberculosis, H37R; read-out: M. tuberculosis H37R LORA (MIC).
Data set [2] is described as follows: Hela cell cytotoxicity (CC50). As to conditions: human, HeLa cells (human cervical cancer cells), CC50_Hela, half of the toxic concentration.
Data set [3] has as its system Mycobacterium smegmatis strain ATCC19420. Kind of data set: In vitro efficacy test using Mycobacterium smegmatis strain ATCC19420 (MIC). It counts as cell-based. As to conditions: Mycolicibacterium smegmatis, ATCC19420, 72 h, CA-MHB + 0.02% Tween 80, 30° C., read after 72 hours.
The test system of data set [4] is M. tuberculosis H37Rv. Briefly: In vitro efficacy test using the H37Rv strain, Microplate Alamar Blue Assay (MABA) MIC. As to conditions: Mycobacterium tuberculosis, H37RV, aerobic; 7H9 medium, Alamar Blue; read-out: M. tuberculosis H37Rv MABA (MIC). The class given is cell-based, Mycobacterium tuberculosis.
In data set [5] the test system is Vero Cell. Kind of data set: Vero cell cytotoxicity (IC50). It counts as cell-based. As to conditions: Chlorocebus sabaeus, Vero, African green monkey kidney cells.

Molecules are shown by their SMILES. Values after ≈ are worked out from the molar mass of the structure shown.

As to `COc1ncc(-c2ccc(C#N)cc2)cc1C(c1ccccc1)C(O)(CCN(C)C)c1cccc2ccccc12` (stereo not shown) [Compound 157, 4-(5-(4-(dimethylamino)-2-hydroxyl-2-(naphthalen-1-yl)-1-phenylbutyl)-6-methoxypyridin-3-yl)-benzonitrile], the MIC in data set [1] came out at 0.77 µg/mL (≈ 1.46 µM); in data set [3] it was 0.0312 µg/mL; in data set [4], 0.44 µg/mL (≈ 0.834 µM). Besides, in data set [2], the CC50 is greater than 64 µg/mL. This compound also gave a half-maximal inhibitory concentration (IC50) in data set [5] greater than 32 µg/mL.
Consider `COc1ncc(-c2ccc(Br)cc2)cc1C(c1ccccc1)C(O)(CCN(C)C)c1cc(F)cc(F)c1` (stereo not shown) [Compound 316, 1-(5-(4-bromophenyl)-2-methoxypyridin-3-yl)-2-(3,5-difluorophenyl)-4-dimethylamino-1-phenylbutan-2-ol], for which the MIC in data set [1] worked out at 2.97 µg/mL (≈ 5.23 µM); in data set [3], 0.0156 µg/mL; in data set [4] it was 0.04 µg/mL (≈ 0.0705 µM). The CC50 in data set [2] was greater than 64 µg/mL. This compound registered an IC50 in data set [5] greater than 32 µg/mL.
In the same order, the values of `COc1ncc(C2CCSCC2)cc1C(c1ccccc1)C(O)(CCN(C)C)c1cccc2ccccc12` (stereo not shown) [Compound 255, 4-(dimethylamino)-1-(2-methoxy-5-(tetrahydro-2H-thiopyran-4-yl)pyridin-3-yl)-2-(naphthalen-1-yl)-1-phenylbutan-2-ol] are 8.33 µg/mL (≈ 15.8 µM), 0.25 µg/mL, 0.48 µg/mL (≈ 0.911 µM), greater than 64 µg/mL and greater than 32 µg/mL.
In the same order, the values of `COc1ncc(-c2cccs2)cc1C(c1ccccc1)C(O)(CCN(C)C)c1cccc2ccccc12` (stereo not shown) [Compound 141, 4-(dimethylamino)-1-(2-methoxy-5-(thiophen-2-yl)pyridin-3-yl)-2-(naphthalen-1-yl)-1-phenylbutan-2-ol] are 1.44 µg/mL (≈ 2.83 µM), no more than 0.0625 µg/mL, 0.93 µg/mL (≈ 1.83 µM), greater than 64 µg/mL and 24.4 µg/mL (≈ 47.9 µM).
Turning to `COc1cccc(C(c2cc(-c3ccccc3)cnc2OC)C(O)(CCN(C)C)c2cc(F)cc(F)c2)c1OC` (stereo not shown) [Compound 207, 2-(3,5-difluorophenyl)-1-(2,3-dimethoxyphenyl)-4-(dimethylamino)-1-(2-methoxy-5-phenylpyridin-3-yl)butan-2-ol], the MIC in data set [1] was 0.99 µg/mL (≈ 1.8 µM); in data set [3] it was no more than 0.0625 µg/mL; in data set [4] it was 0.96 µg/mL (≈ 1.75 µM). In addition, in data set [2], the midpoint of cytotoxicity, the CC50, lay at 10.3 µg/mL (≈ 18.7 µM). The same compound gave an IC50 in data set [5] of 25.7 µg/mL (≈ 46.8 µM).
On the same counts, the results for `COc1cccc(C(c2cc(-c3ccccc3)cnc2OC)C(O)(CCN(C)C)c2ccccc2)c1F` (stereo not shown) [Compound 226, 4-(dimethylamino)-1-(2-fluoro-3-methoxyphenyl)-1-(2-methoxy-5-phenylpyridin-3-yl)-2-phenylbutan-2-ol] are 0.97 µg/mL (≈ 1.94 µM), 0.125 µg/mL, 0.44 µg/mL (≈ 0.879 µM), 13.1 µg/mL (≈ 26.2 µM) and 25.5 µg/mL (≈ 50.9 µM).
In the same order, the values of `COc1ncc(C(C)C)cc1C(c1ccccc1)C(O)(CCN(C)C)c1cccc2ccccc12` (stereo not shown) [Compound 175, 4-(dimethylamino)-1-(5-isopropyl-2-methoxypyridin-3-yl)-2-(naphthalen-1-yl)-1-phenylbutan-2-ol] are 2.83 µg/mL (≈ 6.04 µM), 0.25 µg/mL, 1.42 µg/mL (≈ 3.03 µM), 27.6 µg/mL (≈ 59 µM) and greater than 50 µg/mL.
In the same order, the values of `COc1cccc(C(c2cc(-c3ccccc3)cnc2OC)C(O)(CCN(C)C)c2cccc(Cl)c2)c1OC` (stereo not shown) [Compound 209, 2-(3-chlorophenyl)-1-(2,3-dimethoxyphenyl)-4-(dimethylamino)-1-(2-methoxy-5-phenylpyridin-3-yl)butan-2-ol] are 0.84 µg/mL (≈ 1.54 µM), 0.0312 µg/mL, 0.89 µg/mL (≈ 1.63 µM), 13.3 µg/mL (≈ 24.3 µM) and 27.3 µg/mL (≈ 49.9 µM).
